For 14 molecules, MIC results are on record in ChEMBL document CHEMBL3244322, “5-O-Alkylated derivatives of 5-hydroxy-2'-deoxyuridine as potential antiviral agents. Anti-herpes activity of 5-propynyloxy-2'-deoxyuridine” (J Med Chem, 1978).

SMILES strings stand for the structures. In brackets after ≈: the same amount, converted by molar mass. Bounds are passed on as bounds.

This test has as its system Vaccinia virus. In words: Antiviral activity against Vaccinia virus infected in primary rabbit kidney cells assessed as inhibition of virus-induced cytopathogenicity. Type of test: functional. As to conditions: Orthopoxvirus vaccinia. A general note: Cytopathic effects are the visible damage that an infection or toxin causes in cultured cells.
For `C=CCOc1cn([C@@H]2O[C@H](CO)[C@@H](O)[C@H]2O)c(=O)[nH]c1=O`, the MIC was greater than 600 µM.

As to `Nc1ncnc2c1ncn2[C@@H]1O[C@H](CO)[C@@H](O)[C@@H]1O` [VIDARABINE], the MIC turned out to be 1.4 µM (≈ 0.374 µg/mL).

For the molecule `Cc1ccc(COc2cn([C@@H]3O[C@H](CO)[C@@H](O)[C@H]3O)c(=O)[nH]c2=O)cc1`, the MIC was greater than 600 µM.

Consider `O=c1[nH]c(=O)n([C@@H]2O[C@H](CO)[C@@H](O)[C@H]2O)cc1OCc1ccccc1`, for which the MIC is greater than 600 µM.

With `C=CCOc1cn([C@H]2C[C@H](O)[C@@H](CO)O2)c(=O)[nH]c1=O`, the MIC was found to be 70 µM (≈ 19.9 µg/mL).

For the molecule `NC(=O)COc1cn([C@H]2C[C@H](O)[C@@H](CO)O2)c(=O)[nH]c1=O`, the MIC was 130 µM (≈ 39.2 µg/mL).

For the molecule `O=c1[nH]c(=O)n([C@H]2C[C@H](O)[C@@H](CO)O2)cc1I` [IDOXURIDINE], the MIC turned out to be 1.4 µM (≈ 0.496 µg/mL).

As to `C#CCOc1cn([C@H]2C[C@H](O)[C@@H](CO)O2)c(=O)[nH]c1=O`, the MIC stood at 35 µM (≈ 9.88 µg/mL).

As to `O=C(O)COc1cn([C@H]2C[C@H](O)[C@@H](CO)O2)c(=O)[nH]c1=O`, the MIC is greater than 600 µM.

For `O=c1[nH]c(=O)n([C@H]2C[C@H](O)[C@@H](CO)O2)cc1OCc1ccc([N+](=O)[O-])cc1`, the MIC is greater than 260 µM.

`O=c1[nH]c(=O)n([C@@H]2O[C@H](CO)[C@@H](O)[C@H]2O)cc1OCc1ccc([N+](=O)[O-])cc1`: the MIC was greater than 600 µM.

Turning to `O=c1[nH]c(=O)n([C@H]2C[C@H](O)[C@@H](CO)O2)cc1OCc1ccccc1`, the MIC was greater than 300 µM.

As to `NC(=O)COc1cn([C@@H]2O[C@H](CO)[C@@H](O)[C@H]2O)c(=O)[nH]c1=O`, the MIC is greater than 600 µM.

Turning to `O=c1[nH]c(=O)n([C@H]2C[C@H](O)[C@@H](CO)O2)cc1O`, the MIC amounted to 14 µM (≈ 3.42 µg/mL).
